Data taken from patent US20250248944A1, “SOFTGEL CAPSULES HAVING A FILL COMPOSITION COMPRISING APPLE CIDER VINEGAR” (CAPTEK SOFTGEL INTERNATIONAL, INC., priority 2024, published 2025).

What was measured:
[1] = Compatibility of acetic acid sources with the gelatin and plasticizer matrix; format: physicochemical; settings: acetic acid source tested individually
Method: Various sources of acetic acid were tested in the laboratory to determine their compatibility with the gelatin and plasticizer matrix.

[2] = in softgel liquid fill materials
Text: The Bragg brand of apple cider vinegar hardshell capsules include sodium diacetate.

| SMILES | compatibility with the gelatin and plasticizer matrix (reaction observed) [1] | effect on softgel shell [2] |
| --- | --- | --- |
| CC(=O)[O-].CC(=O)[O-].[Zn+2] [Zinc acetate] | least reaction | – |
| CC(=O)[O-].CC(=O)[O-].[Ca+2] [Calcium acetate] | partially gelled up and liquified | – |
| CC(=O)O.NCCCC[C@H](N)C(=O)O [Lysine acetate powder, Lysine acetate] | completely liquefied | – |
| CC(=O)O.CC(=O)[O-].[Na+] [Sodium diacetate] | corroding a hole in the gelatin and causing leakage of the fill material | causes holes to form in the softgel shell |
